Laboratory results reported in patent US20060121072A1, “Topical parasiticide formulations and methods of treatment” (priority 2002, published 2006).

Columns and labels:
[1] = Plasma pharmacokinetics of triclabendazole (with sulphone and sulphoxide metabolites) in cattle; type: in vivo
Procedure: (§1) Formulations according to the invention were tested for their efficacy in delivering benzimidazoles and macrocyclic lactones to the bloodstream of mammals (cattle), and compared to the efficacy in delivering these agents to animals' bloodstreams by standard commercially available drench (Fasinex 120®), and an experimental solvent-based triclabendazole/ivermectin pour-on formulation.
Cattle (typically Hereford or Hereford cross) with either natural or artificially infected burdens of fluke and nematodes were used in pen and field trials. […] Experimental treatments were applied along the backline using a commercially available backliner gun fitted with a plastic shroud to ensure correct delivery of the formulation according to the protocol.
(§2) Blood samples (plasma) were taken by venipuncture of the jugular vein at the designated time intervals. Analysis for triclabendazole and ivermectin residues in the plasma was carried out and reported by commercial contract laboratories.
The triclabendazole was extracted from the plasma using ethyl acetate. Following concentration and SPE clean up, the triclabendazole and its sulphone and sulphoxide metabolites were analysed by reverse phase HPLC using UV detection.

[2] = Plasma pharmacokinetics of ivermectin in cattle; type: in vivo
Procedure: as §1
Cattle (typically Hereford or Hereford cross) with either natural or artificially infected burdens of fluke and nematodes were used in pen and field trials. Within a given trial animals were allotted into treatment groups, each having similar mean weights and fluke and nematode burdens. Experimental treatments were applied along the backline using a commercially available backliner gun fitted with a plastic shroud to ensure correct delivery of the formulation according to the protocol.
as §2
Ivermectin was extracted from the plasma using acetonitrile and concentrated by evaporation. The sample was cleaned up by solid phase extraction (SPE) chromatography and the ivermectin determined as the N-methyl imidazole derivative using reverse phase HPLC with fluorescence detection.

[3] = Table 2 pour-on 90 g/L triclabendazole + 10.0 g/L ivermectin, 1 mL/10 kg, 1.0 mg/kg
[4] = Table 2 pour-on 120 g/L triclabendazole + 5.0 g/L ivermectin, 1 mL/10 kg, 0.5 mg/kg
[5] = Table 2 pour-on 180 g/L triclabendazole + 7.5 g/L ivermectin, 1 mL/10 kg, 0.75 mg/kg
[6] = Table 3 pour-on 240 g/L triclabendazole + 3.33 g/L ivermectin (triethanolamine), 1 ml/6.67 kg, 0.5 mg/kg
[7] = Table 3 pour-on 240 g/L triclabendazole + 5 g/L ivermectin (sodium dodecyl sulphate), 1 ml/10 kg, 0.5 mg/kg
[8] = Table 3 pour-on 240 g/L triclabendazole + 10 g/L ivermectin (triethanolamine), 1 ml/20 kg, 0.5 mg/kg
[9] = Table 4 pour-on 180 g/L triclabendazole + 7.5 g/L ivermectin, 1 mL/15 kg, mean treatment area 110 cm^2, 0.5 mg/kg
[10] = Table 4 pour-on 240 g/L triclabendazole + 10.0 g/L ivermectin, 1 mL/20 kg, mean treatment area 76 cm^2, 0.5 mg/kg

In the case of `CSc1nc2cc(Cl)c(Oc3cccc(Cl)c3Cl)cc2[nH]1` [Triclabendazole, 5-chloro-6-(2,3-dichlorophenoxy)-2-(methylthio)-benzimidazole], the “Triclabendazole AUC” value ([1]; Table 2 pour-on 90 g/L triclabendazole + 10.0 g/L ivermectin, 1 mL/10 kg, 9.0 mg/kg) is reported as 72 µg·days/mL, the “Triclabendazole AUC” value ([1]; Table 2 pour-on 120 g/L triclabendazole + 5.0 g/L ivermectin, 1 mL/10 kg, 12 mg/kg) is reported as 85 µg·days/mL and the “Triclabendazole AUC” value ([1]; Table 2 pour-on 180 g/L triclabendazole + 7.5 g/L ivermectin, 1 mL/10 kg, 18 mg/kg) is reported as 139 µg·days/mL. For the same compound, the “Triclabendazole AUC” value ([1]; Table 3 pour-on 240 g/L triclabendazole + 3.33 g/L ivermectin (triethanolamine), 1 ml/6.67 kg, 36 mg/kg) was 177 µg·days/mL, the “Triclabendazole AUC” value ([1]; Table 3 pour-on 240 g/L triclabendazole + 5 g/L ivermectin (sodium dodecyl sulphate), 1 ml/10 kg, 24 mg/kg) was 129 µg·days/mL and the “Triclabendazole AUC” value ([1]; Table 3 pour-on 240 g/L triclabendazole + 10 g/L ivermectin (triethanolamine), 1 ml/20 kg, 12 mg/kg) was 73 µg·days/mL. The “Triclabendazole AUC” value ([1]; Table 4 pour-on 180 g/L triclabendazole + 7.5 g/L ivermectin, 1 mL/15 kg, mean treatment area 110 cm^2, 12.0 mg/kg) was 65 µg·days/mL and the “Triclabendazole AUC” value ([1]; Table 4 pour-on 240 g/L triclabendazole + 10.0 g/L ivermectin, 1 mL/20 kg, mean treatment area 76 cm^2, 12.0 mg/kg) was 170 µg·days/mL.

With 22,23-dihydroavermectin B1 [Ivermectin] the “Ivermectin AUC” value [2, 3] was 88 ng·days/mL, the “Ivermectin Mean plasma” value [2, 3] was 4.4 ng/mL and the “Ivermectin Plasma Cmax” value [2, 3] was 8 ng/mL. The “Ivermectin Tmax” value [2, 3] was 120 h, the “Ivermectin AUC” value [2, 4] was 52 ng·days/mL and the “Ivermectin Mean plasma” value [2, 4] was 2.5 ng/mL. The “Ivermectin Plasma Cmax” value [2, 4] was 8 ng/mL, the “Ivermectin Tmax” value [2, 4] was 120 h and the “Ivermectin AUC” value [2, 5] was 79 ng·days/mL. For the same compound, the “Ivermectin Mean plasma” value [2, 5] was 4.1 ng/mL, the “Ivermectin Plasma Cmax” value [2, 5] was 13 ng/mL and the “Ivermectin Tmax” value [2, 5] was 120 h. For the same compound, the “Ivermectin AUC” value [2, 6] was 82 ng·days/mL, the “Ivermectin Plasma Cmax” value [2, 6] was 7.5 ng/mL and the “Ivermectin Tmax” value [2, 6] was 170 h. For the same compound, the “Ivermectin AUC” value [2, 7] was 84 ng·days/mL, the “Ivermectin Plasma Cmax” value [2, 7] was 9.5 ng/mL and the “Ivermectin Tmax” value [2, 7] was 120 h. The “Ivermectin AUC” value [2, 8] was 104 ng·days/mL, the “Ivermectin Plasma Cmax” value [2, 8] was 10.4 ng/mL and the “Ivermectin Tmax” value [2, 8] was 170 h. The “Ivermectin AUC” value [2, 9] was 30 ng·days/mL, the “Ivermectin Mean plasma conc^n” value [2, 9] was 1.7 ng/mL and the “Ivermectin AUC” value [2, 10] was 43 ng·days/mL. The “Ivermectin Mean plasma conc^n” value [2, 10] was 2.2 ng/mL.
